In ChEMBL document CHEMBL4414635, “Dasymaschalolactams A-E, Aristolactams from a Twig Extract of Dasymaschalon dasymaschalum” (J Nat Prod, 2019):

Assay: Inhibition of Saccharomyces cerevisiae alpha-glucosidase using p-nitrophenyl alpha-D-glucoside as substrate incubated for 0.5 hrs followed by substrate addition and measured after 1 hr by colorimetric assay
COc1cc(/C=C/C(=O)NCCc2ccc(O)cc2)ccc1O [N-TRANS-FERULOYL TYRAMINE] gave an IC50 of 24.7 µM.
C[C@H]1O[C@H](O[C@H]2[C@H](O)[C@@H](O)[C@@H](O[C@H]3[C@H](O)[C@@H](O)C(O)O[C@@H]3CO)O[C@@H]2CO)[C@H](O)[C@@H](O)[C@@H]1N[C@H]1C=C(CO)[C@@H](O)[C@H](O)[C@H]1O (some centres undefined) [ACARBOSE] gave an IC50 of 73.7 µM.
With COc1ccc([C@@H]2CC(=O)c3c(O)cc(O)c(O)c3O2)cc1 the IC50 was 256 µM.
With O=C(/C=C/c1ccc(O)cc1)NCCc1ccc(O)cc1 [N-P-COUMAROYL TYRAMINE] the IC50 was 4.5 µM.
